Assays:
Human SCD-1 = biological target: T1, Human SCD-1 (Homo sapiens, UniProt O00767); assay: Human SCD-1 enzymatic activity from microsomes of HepG2 cells (conversion of stearic acid into oleic acid); assay type: biochemical; conditions: 10 μM compound, microsomal fraction of HepG2 cells, relative to carrier 0.1% DMSO; for inhibition at 10 µM: read-out: HSCD-1 (HEPG2) % inh. (10 μM)
T1 construct: adding 125 μg of microsomal fraction of HepG2 cells; host or cells: HepG2 human hepatocarcinoma cells (microsomal fraction)
T1 sequence (O00767 1-359): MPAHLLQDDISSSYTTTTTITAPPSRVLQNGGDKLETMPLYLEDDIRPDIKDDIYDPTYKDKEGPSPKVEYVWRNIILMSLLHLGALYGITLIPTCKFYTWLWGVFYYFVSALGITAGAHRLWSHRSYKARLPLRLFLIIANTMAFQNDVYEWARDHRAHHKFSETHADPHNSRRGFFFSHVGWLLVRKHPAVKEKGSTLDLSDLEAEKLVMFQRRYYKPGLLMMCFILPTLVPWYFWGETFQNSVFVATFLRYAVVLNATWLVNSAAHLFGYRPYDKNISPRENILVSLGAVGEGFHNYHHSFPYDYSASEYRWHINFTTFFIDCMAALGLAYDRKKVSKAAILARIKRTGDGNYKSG
Method: In vitro: Human SCD-1 enzymatic activity from microsomes of HepG2 cells after treatment with inhibitory compounds (inhibition %).
Human hepatocarcinoma HepG2 cells (ATCC, HB-8065) are grown to confluence and then trypsinized. The cell pellet is taken up in 10 mM Tris buffer (pH 7.4), saccharose (250 mM) DTT (1 mM) and then the cells are lyzed by sonication. The microsomes are obtained after centrifugation at 10,000 g for 20 minutes a 4° C. followed by centrifugation of the supernatant at 100,000 g for 60 minutes a 4° C. The pellet is taken up in 10 mM Tris buffer (pH 7.4) saccharose (250 mM) at 4° C. and the microsomal proteins are assayed and stored at −196° C. (liquid nitrogen).
The enzymatic reaction measures the conversion of stearic acid (a C18:0 fatty acid) into oleic acid (C18:1 fatty acid) by SCD-1. The enzymatic reaction is started by adding 125 μg of microsomal fraction of HepG2 cells to tubes (total reaction volume of 500 μl) containing 62 μM of stearic acid (45 μM of stearic acid and 17 μM of [^14C] stearic acid) in a phosphate buffer at 100 mM (pH 7.16) with 7.2 mM of ATP, 0.54 mM of CoA, 6 mM of MgCl2, 0.8 mM of NADH and the inhibitory compound or the carrier (0.1% DMSO). The tubes are incubated for 20 minutes at 37° C. and the enzymatic reaction is then stopped by adding KOH (12%) and saponification for 30 minutes at 80° C. After acidification (3N HCl), the fatty acids are extracted twice with ethyl ether, evaporated under nitrogen before being taken up with a methanol/dichloromethane (3:1) mixture. The product of the reaction (C18:1) is separated from the substrate of the reaction (C18:0) by HPLC (Perkin Elmer, C18 reverse phase column) coupled to a on-line radioactivity detector (FlowOne). Enzymatic activity is calculated in picomoles of stearic acid converted into oleic acid per minute and per mg of protein. For each inhibitory compound, an inhibition % is determined relatively to the reference enzymatic activity (carrier 0.1% DMSO). Sterculic acid is the reference inhibitory compound (Gomez F. E., Bauman D. E., Ntambi J. M., Fox B. G. Effects of sterculic acid on stearoyl-CoA desaturase in differentiating […] adipocytes. Biochem Biophys Res Commun. 300 316-326 (2003)).

Row | melting point [°C] | inhibition at 10 µM (Human SCD-1) [%] | HSCD-1 (HEPG2) % inh. (10 μM) (Human SCD-1) [%] | SMILES
1 | 85 | 100 | – | Cn1c(=O)c(N2CCC(Oc3ccccc3C(F)(F)F)CC2)nn(-c2ccsc2)c1=O [Example 82, 4-methyl-2-thiophen-3-yl-6-[4-(2-trifluoromethyl-phenoxy)-piperidin-1-yl]-2H-[1,2,4]triazine-3,5-dione]
2 | 150 | 95 | – | Cn1c(=O)[nH]nc(N2CCC(Oc3ccccc3C(F)(F)F)CC2)c1=O [Example 85, 4-methyl-6-[4-(2-trifluoromethyl-phenoxy)-piperidin-1-yl]-2H-[1,2,4]triazine-3,5-dione]
3 | 95 | 62 | – | CCCCCCCn1c(=O)[nH]nc(N2CCC(Oc3ccccc3Cl)CC2)c1=O [Example 76, 6-[4-(2-chloro-phenoxy)-piperidin-1-yl]-4-heptyl-2H-[1,2,4]triazine-3,5-dione]
4 | 72 | 79 | – | Cn1c(=O)c(N2CCC(Oc3ccccc3C(F)(F)F)CC2)nn(-c2ccc(C#N)cc2)c1=O [Example 83, 4-{4-methyl-3,5-dioxo-6-[4-(2-trifluoromethyl-phenoxy)-piperidin-1-yl]-4,5-dihydro-3H-[1,2,4]triazin-2-yl}-benzonitrile]
5 | 44 | 48 | – | CCOCCOCCn1nc(N2CCC(Oc3ccccc3C(F)(F)F)CC2)c(=O)n(C)c1=O [Example 88, 2-[2-(2-ethoxy-ethoxy)-ethyl]-4-methyl-6-[4-(2-trifluoromethyl-phenoxy)-piperidin-1-yl]-2H-[1,2,4]triazine-3,5-dione]
6 | 63 | 98 | – | Cn1c(=O)c(N2CCC(Oc3ccccc3C(F)(F)F)CC2)nn(-c2cccnc2)c1=O [Example 81, 4-methyl-2-pyridin-3-yl-6-[4-(2-trifluoromethyl-phenoxy)-piperidin-1-yl]-2H-[1,2,4]triazine-3,5-dione]
7 | 92 | 65 | – | Cn1nc(N2CCN(Cc3ccccc3C(F)(F)F)CC2)c(=O)n(C)c1=O [Example 55, 2,4-dimethyl-6-[4-(2-trifluoromethyl-benzyl)-piperazin-1-yl]-2H-[1,2,4]triazine-3,5-dione]
8 | – | 60 | – | CCCCn1nc(N2CCN(C(=O)c3ccccc3C(F)(F)F)CC2)c(=O)n(C)c1=O [Example 74, 2-butyl-4-methyl-6-[4-(2-trifluoromethyl-benzoyl)-piperazin-1-yl]-2H-[1,2,4]triazine-3,5-dione]
9 | – | 50 | – | Cn1c(=O)[nH]nc(N2CCN(Cc3ccc(F)cc3C(F)(F)F)CC2)c1=O [Example 71, 6-[4-(4-fluoro-2-trifluoromethyl-benzyl)-piperazin-1-yl]-4-methyl-2H-[1,2,4]triazine-3,5-dione]
10 | – | – | 100 | CCCCCCCCC1=C(CCCCCCCC(=O)O)C1 [Sterculic acid, reference compound]
11 | – | 66 | – | Cn1c(=O)[nH]nc(N2CCN(C(=O)c3ccc(F)cc3C(F)(F)F)CC2)c1=O [Example 70, 6-[4-(4-fluoro-2-trifluoromethyl-benzoyl)-piperazin-1-yl]-4-methyl-2H-[1,2,4]triazine-3,5-dione]

More lines, now with the values behind:

Row | SMILES | melting point [°C] | inhibition at 10 µM (Human SCD-1) [%] | HSCD-1 (HEPG2) % inh. (10 μM) (Human SCD-1) [%]
12 | Cn1nc(N2CCN(C(=O)c3ccccc3C(F)(F)F)CC2)c(=O)n(C)c1=O [Example 5, 2,4-dimethyl-6-[4-(2-trifluoromethyl-benzoyl)-piperazin-1-yl]-2H-[1,2,4]triazine-3,5-dione] | 76 | 43 | –
13 | Cn1nc(N2CCC(Oc3cc(C(F)(F)F)ccc3Cl)CC2)c(=O)n(C)c1=O [Example 29, 6-[4-(2-chloro-5-trifluoromethyl-phenoxy)-piperidin-1-yl]-2,4-dimethyl-2H-[1,2,4]triazine-3,5-dione] | 160 | 71 | –
14 | Cn1nc(N2CCC(Oc3ccc(F)cc3)CC2)c(=O)n(C)c1=O [Example 33, 6-[4-(4-fluoro-phenoxy)-piperidin-1-yl]-2,4-dimethyl-2H-[1,2,4]triazine-3,5-dione] | 70 | 48 | –
15 | Cn1nc(N2CCN(C(=O)c3ccccc3C(F)(F)F)CC2)c(=O)[nH]c1=O [Example 2, 2-methyl-6-[4-(2-trifluoromethyl-benzoyl)-piperazin-1-yl]-2H-[1,2,4]triazine-3,5-dione] | 146 | 63 | –
16 | Cn1nc(N2CCC(Oc3cc(F)ccc3Cl)CC2)c(=O)n(C)c1=O [Example 30, 6-[4-(2-chloro-5-fluoro-phenoxy)-piperidin-1-yl]-2,4-dimethyl-2H-[1,2,4]triazine-3,5-dione] | 168 | 86 | –
17 | Cc1ccccc1OC1CCN(c2nn(C)c(=O)n(C)c2=O)CC1 [Example 31, 2,4-dimethyl-6-(4-o-tolyloxy-piperidin-1-yl)-2H-[1,2,4]triazine-3,5-dione] | 102 | 73 | –
18 | CNC(=O)Cn1nc(N2CCC(Oc3ccccc3C(F)(F)F)CC2)c(=O)n(C)c1=O [Example 14, N-methyl-2-{4-methyl-3,5-dioxo-6-[4-(2-trifluoromethyl-phenoxy)-piperidin-1-yl]-4,5-dihydro-3H-[1,2,4]triazin-2-yl}-acetamide] | – | 74 | –
19 | CCCCCCCn1c(=O)c(N2CCC(Oc3ccccc3C(F)(F)F)CC2)nn(CCC#N)c1=O [Example 12, 3-{4-heptyl-3,5-dioxo-6-[4-(2-trifluoromethyl-phenoxy)-piperidin-1-yl]-4,5-dihydro-3H-[1,2,4]triazin-2-yl}-propionitrile] | – | 71 | –
20 | Cn1c(=O)c(N2CCC(Oc3ccccc3Cl)CC2)nn(CCCC(F)(F)F)c1=O [Example 25, 6-[4-(2-chloro-phenoxy)-piperidin-1-yl]-4-methyl-2-(4,4,4-trifluoro-butyl)-2H-[1,2,4]triazine-3,5-dione] | – | 70 | –
21 | Cn1nc(N2CCC(Oc3ccccc3F)CC2)c(=O)n(C)c1=O [Example 28, 6-[4-(2-fluoro-phenoxy)-piperidin-1-yl]-2,4-dimethyl-2H-[1,2,4]triazine-3,5-dione] | – | 50 | –
22 | Cn1c(=O)c(N2CCN(C(=O)c3ccccc3C(F)(F)F)CC2)nn(CCCC(F)(F)F)c1=O [Example 3, 4-methyl-2-(4,4,4-trifluoro-butyl)-6-[4-(2-trifluoromethyl-benzoyl)-piperazin-1-yl]-2H-[1,2,4]triazine-3,5-dione] | – | 90 | –
23 | Cn1c(=O)c(N2CCN(C(=O)c3cc(F)ccc3C(F)(F)F)CC2)nn(CCCC(F)(F)F)c1=O [Example 47, 6-[4-(5-fluoro-2-trifluoromethyl-benzoyl)-piperazin-1-yl]-4-methyl-2-(4,4,4-trifluoro-butyl)-2H-[1,2,4]triazine-3,5-dione] | – | 84 | –
24 | Cn1c(=O)c(N2CCC(Oc3ccccc3C(F)(F)F)CC2)nn(CCc2c[nH]c3ccccc23)c1=O [Example 16, 2-[2-(1H-Indol-3-yl)-ethyl]-4-methyl-6-[4-(2-trifluoromethyl-phenoxy)-piperidin-1-yl]-2H-[1,2,4]triazine-3,5-dione] | – | 57 | –
25 | Cn1c(=O)c(N2CCC(Oc3ccccc3Cl)CC2)nn(CCC#N)c1=O [Example 23, 3-{6-[4-(2-chloro-phenoxy)-piperidin-1-yl]-4-methyl-3,5-dioxo-4,5-dihydro-3H-[1,2,4]triazin-2-yl}-propionitrile] | – | 73 | –
